Assay results as given in patent US20100196915A1, “Method of Detecting Oncogenesis of Hematopoietic Cells” (UNIVERSITY OF SOUTH FLORIDA, priority 2007, published 2010).

Tests used:
Type in all cases: cell-based
[1] = system: 32D cells transformed with IL-27R; test: Apoptosis by annexin V binding, flow cytometry; conditions: after 24 hr of treatment, FIG. 4(B)
Description: (§1) 32D cells were washed twice with RPMI containing 0.1% BSA and incubated in the same medium with either 0.1% DMSO, 0.5 μM or 2 μM JAK inhibitor I (EMD Biosciences/Calbiochem) for 3 hours before lysis. For cell growth and viability, cells were plated at a concentration of 2×10^5/ml in RPMI/10% FBS and either 0.1% DMSO or 0.5 μM JAK inhibitor I. Cell growth and viability were determined by trypan blue exclusion. After 24 hr of JAK inhibitor I treatment, the percentage of apoptotic cells and cell cycle profiles were determined by flow cytometry. See supporting information.
(§2) Flow Cytometry: Apoptosis and Cell Cycle Analysis. The percentage of apoptotic cells after 24 h JAK inhibitor I treatment was determined by flow cytometric analysis of annexin V-fluorescein (BD Biosciences) binding. […] Four-hundred microliters of 1× binding buffer was added to the samples and the cells were analyzed by flow cytometry. Flow cytometric analysis was performed on a FACS Scan instrument with CellQuest software (BD Biosciences) and data obtained were analyzed with FlowJo software (Tree Star). Cell cycle profiles after 24 h JAK inhibitor I treatment were determined by flow cytometric analysis of PI-stained cells. […] Stained cells were then analyzed by flow cytometry using a FACS Scan with CellQuest software and analyzed with FlowJo software (Tree Star). […]

[2] = system: 32D cells transformed with IL-27R; test: Cell cycle profile by flow cytometry of PI-stained cells; conditions: after 24 hr of treatment, FIG. 3(B)
Description: as §1, §2

JAK family kinases = test: Immunoblot of STAT1, STAT3, STAT5 and ERK1/2 phosphorylation induced by IL-27R; conditions: 0.5 μM or 2 μM, 3 hours, FIG. 5
Description: Cells were washed in PBS and lysed in lysis buffer (25 mM Tris pH7.4, 150 mM NaCl, 25 mM NaF, 1% Triton-X100, 1 mM sodium vanadate, 2 mM sodium pyrophosphate, 10 μg/ml leupeptin, 2 μg/ml aprotinin, and 1 mM PMSF). Protein concentrations were determined by BCA protein assay kit (Pierce Biotechnology), and equal amounts of protein were analyzed by SDS-PAGE. Primary antibodies used in this study include: IL-27R (TCCR) (C-term) (Sigma), phospho-(P-) STAT1(Y701), P-STAT3(Y705), P-JAK1(Y1022/1023), P-JAK2(Y1007/1008), P-ERK(T202/Y204), JAK1, JAK2 (Cell Signaling Technology), P-STAT5(Y694) (BD Transduction Laboratories), STAT1, STAT3, STAT5, and ERK1 (Santa Cruz Biotechnology). Immunoblots were developed using ECL Western Blotting Substrate (Pierce Biotechnology).
as §1, with “information. […]” for “information.”

[3] = system: 32D cells transformed with IL-27R; test: Cell growth and viability by trypan blue exclusion, JAK inhibitor I studies
Description: as §1
The role of JAK family kinases in transformation by IL-27R was addressed by culturing 32D/IL-27R transformed cells with the pan-JAK inhibitor, JAK inhibitor I (Thompson, J. E., et al., Photochemical preparation of a pyridone containing tetracycle: a Jak protein kinase inhibitor. Bioorg. Med. Chem. Lett., 2002 Apr. 22; 12(8):1219-23). Cells transformed with IL-27R were cultured in the presence of 0.1% DMSO or 0.5 μM JAK inhibitor I on day 0. […] Cell viability, determined using trypan blue, also decreases in the presence of the inhibitor, seen in FIG. 4(A). […] Transformed 32D cells were cultured in the presence of 0.1% DMSO (lane 2), 0.5 μM (lane 3) or 2 μM (lane 4) JAK inhibitor I. Control 32D cells starved of serum/IL-3 in the presence of 0.1% DMSO for three hr is shown in lane 1. […]

[4] = system: IL-27R-expressing 32D cells; test: IL-27 stimulation, P-STAT1 immunoblot; conditions: 100 ng/ml IL-27, 10 min, cells lack gp130
Description: (§3) To stimulate cell cultures with IL-27, 32D and BaF3 cells expressing IL-27R were washed of growth factors and incubated in RPMI medium 1640 containing 0.1% BSA for 3 h. Cells were left untreated or stimulated with 100 ng/ml recombinant human IL-27 (R&D Systems) for 10 min. 293T cells were transfected with IL-27R, JAK2-V617F, and gp130 siRNA as indicated and as described. Two days later, cells were stimulated with 100 ng/ml human IL-27 for the length of time indicated and washed with ice-cold PBS, and cell lysates were prepared and analyzed by immunoblotting as described.
(§4) Finally, while IL-27R-mediated transformation is gp130-independent, these observations still support the paradigm that IL-27-mediated signaling requires gp130 (Pflanz, S., et al., J. Immunol., 2004 Feb. 15; 172(4):2225-31). […] Cells were left untreated or stimulated with 100 ng/ml IL-27 for 10 min and cell lysates analyzed by immunoblotting for phosphorylated (P-) and total STAT1. IL-27-induced signaling (as measured by STAT1 phosphorylation) is not observed in IL-27R-expressing 32D or BaF3 cells, which lack gp130, but is seen in IL-27R-expressing 293T cells, which express gp130, data not shown. […] Two days later, cells were stimulated with 100 ng/ml IL-27 for the length of time indicated, and cell lysates were prepared and analyzed by immunoblotting for P-STAT1, total STAT1, and gp130. […]

[5] = system: IL-27R-expressing BaF3 cells; test: IL-27 stimulation, P-STAT1 immunoblot; conditions: 100 ng/ml IL-27, 10 min, cells lack gp130
Description: as §3, §4

[6] = system: IL-27R-expressing 293T cells; test: IL-27 stimulation and gp130 siRNA depletion, P-STAT1 immunoblot
Description: as §3, §4

| Molecule | apoptosis (annexin V binding) [1] | cell cycle arrest [2] | number of cells in S-phase [2] | ERK1/2 activation (JAK family kinases) | STAT1, -3 and -5 phosphorylation induced by IL-27R (JAK family kinases) | cell growth ([3]; 0.5 μM JAK inhibitor I vs 0.1% DMSO, from day 0, FIG. 3(A)) | cell viability ([3]; 0.5 μM JAK inhibitor I, trypan blue, FIG. 4(A)) | IL-27-induced signaling (STAT1 phosphorylation) [4] | IL-27-induced signaling (STAT1 phosphorylation) [5] | IL-27R/JAK2-V617F-mediated activation of STAT1 ([6]; 100 ng/ml IL-27, 293T cells transfected with IL-27R and JAK2-V617F) | IL-27-induced signaling (STAT1 phosphorylation) ([6]; 100 ng/ml IL-27, cells express gp130) |
| --- | --- | --- | --- | --- | --- | --- | --- | --- | --- | --- | --- |
| JAK inhibitor I | induction of apoptosis | induces a G1 as well as a G2 cell cycle arrest | dramatic decrease | prevents | blocks | the growth of these cells ceases | decreases | – | – | – | – |
| IL-27: recombinant human IL-27 (R&D Systems), cytokine used to stimulate cells (protein, UniProt Q8NEV9 29-243; Q14213 21-229, looked up) Interleukin-27 subunit alpha: FPRPPGRPQLSLQELRREFTVSLHLARKLLSEVRGQAHRFAESHLPGVNLYLLPLGEQLPDVSLTFQAWRRLSDPERLCFISTTLQPFHALLGGLGTQGRWTNMERMQLWAMRLDLRDLQRHLRFQVLAAGFNLPEEEEEEEEEEEEERKGLLPGALGSALQGPAQVSWPQLLSTYRLLHSLELVLSRAVRELLLLSKAGHSVWPLGFPTLSPQP Interleukin-27 subunit beta: RKGPPAALTLPRVQCRASRYPIAVDCSWTLPPAPNSTSPVSFIATYRLGMAARGHSWPCLQQTPTSTSCTITDVQLFSMAPYVLNVTAVHPWGSSSSFVPFITEHIIKPDPPEGVRLSPLAERQLQVQWEPPGSWPFPEIFSLKYWIRYKRQGAARFHRVGPIEATSFILRAVRPRARYYVQVAAQDLTDYGELSDWSLPATATMSLGK | – | – | – | – | – | – | – | not observed | not observed | not enhanced | is seen |
